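In this assay, cells in 96-well plates receive the compound at five concentrations for 48 hours. Endpoints are linearly interpolated between the surrounding concentrations. GI50 marks 50% less growth. Definition used: TGI = concentration required for complete inhibition of growth.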
Columns and labels:
Assay in all cases: NCI-60 cell line screen, 48 h
[1] = system: LOX IMVI melanoma
[2] = system: MOLT-4 leukemia
[3] = system: SF-539 CNS
[4] = system: M14 melanoma
[5] = system: PC-3 prostate
[6] = system: OVCAR-8 ovarian
[7] = system: NCI-H460 lung
[8] = system: SF-268 CNS
[9] = system: BT-549 breast
[10] = system: OVCAR-3 ovarian

`CC1=CC[C@@H]2[C@@H](CC[C@@]2(C)O)C(C)(C)[C@H]1CC[C@@H]1[C@@]2(C)CCC(=O)C(C)(C)O[C@@H]2CC[C@]1(C)O` showed a TGI [1] of 33.3 µM, a TGI [2] of 68.5 µM and a TGI [3] of 36.5 µM. It also gave a TGI [4] of 59.3 µM, a TGI [5] greater than 100 µM and a TGI [6] of 62.1 µM. For the same compound, the TGI [7] was 35.8 µM, the TGI [8] was greater than 100 µM and the TGI [9] was 57.8 µM. For the same compound, the TGI [10] was greater than 100 µM.
For `Cc1cccc(C)c1NC(=O)CCC(=O)NNC(=O)c1cc(O)c2ccccc2c1`, the TGI [1] was greater than 100 µM, the TGI [2] was greater than 100 µM and the TGI [3] was 78.2 µM. It also gave a TGI [4] greater than 100 µM, a TGI [6] of 87.4 µM and a TGI [7] greater than 100 µM. For the same compound, the TGI [8] was greater than 100 µM and the TGI [10] was greater than 100 µM.
`Cc1c(/C=C2\CC/C(=C\c3[nH]c(C(=O)OC(C)(C)C)c(C)c3C)C2=O)[nH]c(C(=O)OC(C)(C)C)c1C` gave a TGI [1] greater than 100 µM, a TGI [2] greater than 100 µM and a TGI [3] greater than 100 µM. The TGI [4] was greater than 100 µM, the TGI [6] was greater than 100 µM and the TGI [7] was greater than 100 µM. It also gave a TGI [8] greater than 100 µM and a TGI [10] greater than 100 µM.
In the case of `O=C(/C=C/c1ccc(OCCCCCCCCCCOc2ccc(/C=C/C(=O)c3ccc(Cl)cc3)cc2)cc1)c1ccc(Cl)cc1`, the TGI [1] is reported as greater than 100 µM, the TGI [2] is reported as greater than 100 µM and the TGI [3] is reported as greater than 100 µM. It also gave a TGI [6] greater than 100 µM, a TGI [7] greater than 100 µM and a TGI [8] greater than 100 µM. The TGI [10] was greater than 100 µM.
Work on `COCCNCC(O)Cn1c2ccc(Cl)cc2c2cc(Cl)ccc21` (stereo not drawn) yielded a GI50 [2] of 1.97 µM, a TGI [2] of 4.05 µM and a GI50 [3] of 1.8 µM. It also gave a TGI [3] of 3.43 µM, a GI50 [4] of 2.06 µM and a TGI [4] of 4.16 µM. The GI50 [5] was 1.75 µM, the TGI [5] was 3.81 µM and the GI50 [6] was 2.06 µM. For the same compound, the TGI [6] was 5.08 µM, the GI50 [7] was 1.86 µM and the TGI [7] was 3.6 µM. The GI50 [8] was 1.79 µM, the TGI [8] was 3.48 µM and the GI50 [9] was 2.06 µM. For the same compound, the TGI [9] was 4.36 µM, the GI50 [10] was 1.95 µM and the TGI [10] was 3.66 µM.
`CCCCN(CC)C(=O)C(=O)C1C(=O)Nc2ccccc2S1=O` (stereo not drawn) gave a TGI [1] greater than 100 µM, a TGI [2] greater than 100 µM and a TGI [3] greater than 100 µM. The TGI [4] was greater than 100 µM, the TGI [6] was greater than 100 µM and the TGI [7] was greater than 100 µM. For the same compound, the TGI [8] was greater than 100 µM and the TGI [10] was greater than 100 µM.
Compound `COC(=O)OCC1OC(N2C(=O)NC(=O)C(I)C2N=[N+]=[N-])CC1OC(=O)OC` (stereo not drawn) has a TGI [1] greater than 100 µM, a TGI [2] greater than 100 µM and a TGI [3] greater than 100 µM. For the same compound, the TGI [4] was greater than 100 µM, the TGI [6] was greater than 100 µM and the TGI [7] was greater than 100 µM. For the same compound, the TGI [8] was greater than 100 µM and the TGI [10] was greater than 100 µM.
For `N#C/C(=C\c1ccc(CP(=O)(O)O)cc1)C(N)=O`, the TGI [1] was greater than 100 µM, the TGI [2] was greater than 100 µM and the TGI [3] was greater than 100 µM. For the same compound, the TGI [4] was greater than 100 µM, the TGI [6] was greater than 100 µM and the TGI [7] was greater than 100 µM. It also gave a TGI [8] greater than 100 µM and a TGI [10] greater than 100 µM.
`COc1cc2c(cc1O)[C@H](C)C(c1ccc(Cl)cc1)O2` (stereo partly drawn) showed a TGI [1] of 29.4 µM, a TGI [2] of 40.9 µM and a TGI [3] greater than 100 µM. The TGI [4] was 55.1 µM, the TGI [7] was 33.4 µM and the TGI [8] was 72.6 µM. It also gave a TGI [10] greater than 100 µM.
With `OCC(O)CC[CH2][Sn]([c]1ccccc1)([c]1ccccc1)[c]1ccccc1` (stereo not drawn) the GI50 [1] was 14.9 µM, the TGI [1] was 30.7 µM and the GI50 [3] was 17.2 µM. For the same compound, the TGI [3] was 32.5 µM, the GI50 [4] was 14.2 µM and the TGI [4] was 31 µM. It also gave a GI50 [6] of 15.7 µM, a TGI [6] of 31.5 µM and a GI50 [7] of 15.4 µM. For the same compound, the TGI [7] was 31.6 µM, the GI50 [10] was 16.2 µM and the TGI [10] was 29.8 µM.
`O=c1cc2n(c(=O)[nH]1)C1OC(C(O)C1O)[C@@H]2CCO` (stereo partly drawn) showed a TGI [1] greater than 100 µM, a TGI [2] greater than 100 µM and a TGI [3] greater than 100 µM. For the same compound, the TGI [4] was greater than 100 µM, the TGI [6] was greater than 100 µM and the TGI [7] was greater than 100 µM. For the same compound, the TGI [8] was greater than 100 µM.
Compound `COc1cc2c(-c3nc4cc(Cl)c(F)cc4s3)cc(=O)oc2c(C)c1OC` has a GI50 [3] of 0.183 µM, a TGI [3] of 0.379 µM and a GI50 [6] of 1.5 µM. It also gave a TGI [6] of 3.47 µM, a GI50 [7] of 2.11 µM and a TGI [7] of 4.61 µM. The GI50 [8] was 1.14 µM, the TGI [8] was 3.24 µM and the GI50 [9] was 0.648 µM. The TGI [9] was 1.82 µM.
Work on `O=c1/c(=C/c2cccc3ccccc23)sc2nc3ccccc3n12` yielded a TGI [1] greater than 100 µM, a TGI [3] greater than 100 µM and a TGI [4] greater than 100 µM. The TGI [6] was greater than 100 µM, the TGI [7] was greater than 100 µM and the TGI [8] was greater than 100 µM. It also gave a TGI [10] greater than 100 µM.
`Nc1nc2ncn(CCO)c2c(=O)[nH]1` showed a TGI [1] greater than 100 µM, a TGI [2] greater than 100 µM and a TGI [3] greater than 100 µM. The TGI [6] was greater than 100 µM, the TGI [7] was greater than 100 µM and the TGI [8] was greater than 100 µM. The TGI [10] was greater than 100 µM.
`CC(C)C1CN1CC(O)Cn1ccnc1[N+](=O)[O-]` (stereo not drawn) showed a TGI [2] greater than 100 µM, a TGI [3] greater than 100 µM and a TGI [4] greater than 100 µM. It also gave a TGI [5] greater than 100 µM, a TGI [6] greater than 100 µM and a TGI [7] greater than 100 µM. For the same compound, the TGI [8] was greater than 100 µM, the TGI [9] was greater than 100 µM and the TGI [10] was greater than 100 µM.
`O=C1c2ccn(CCCCN3CCOCC3)c2C(=O)c2c1c(O)c1ccccc1c2O` gave a GI50 [1] of 3.58 µM, a TGI [1] of 23.1 µM and a GI50 [4] of 2.36 µM. For the same compound, the TGI [4] was 6.32 µM, the GI50 [5] was 6.96 µM and the TGI [5] was 27.3 µM. For the same compound, the GI50 [6] was 5.52 µM, the TGI [6] was 20 µM and the GI50 [7] was 12.3 µM. For the same compound, the TGI [7] was 28.4 µM, the GI50 [8] was 9.44 µM and the TGI [8] was 30.9 µM. It also gave a GI50 [10] of 1.62 µM and a TGI [10] of 8.77 µM.
`CS(=O)(=O)C1S(=O)(=O)OCCOS1(=O)=O` showed a TGI [1] greater than 100 µM, a TGI [2] greater than 100 µM and a TGI [3] greater than 100 µM. The TGI [4] was greater than 100 µM, the TGI [6] was greater than 100 µM and the TGI [7] was greater than 100 µM. For the same compound, the TGI [8] was greater than 100 µM and the TGI [10] was greater than 100 µM.
For `COC(=O)N1[C@H]2Cc3c(OC)c(C)c(OC)c(OC)c3[C@@H]1/C(=C\c1cc(OC)c(OC)c(C)c1OC)N(Cc1ccccc1)C2=O`, the TGI [1] was greater than 100 µM, the TGI [2] was 75.2 µM and the TGI [3] was greater than 100 µM. The TGI [4] was greater than 100 µM, the TGI [6] was greater than 100 µM and the TGI [7] was greater than 100 µM. For the same compound, the TGI [8] was greater than 100 µM and the TGI [10] was greater than 100 µM.
Work on `CS(=O)(=O)NNS(=O)(=O)c1ccc(Br)cc1` yielded a TGI [1] greater than 100 µM, a TGI [3] greater than 100 µM and a TGI [4] greater than 100 µM. For the same compound, the TGI [6] was greater than 100 µM, the TGI [7] was greater than 100 µM and the TGI [8] was greater than 100 µM.
In the case of `CC1OCC2OC(C)OC(C3C4=C(CC(C)(C)CC4=O)OC4=C3C(=O)CC(C)(C)C4)C2O1` (stereo not drawn), the TGI [1] is reported as greater than 100 µM, the TGI [2] is reported as greater than 100 µM and the TGI [3] is reported as greater than 100 µM. For the same compound, the TGI [4] was greater than 100 µM, the TGI [5] was greater than 100 µM and the TGI [6] was greater than 100 µM. For the same compound, the TGI [7] was greater than 100 µM, the TGI [8] was greater than 100 µM and the TGI [10] was greater than 100 µM.
With `COc1ccc(CC(=O)c2cc(OC)c(OC)cc2C)cc1OC` the TGI [2] was greater than 100 µM, the TGI [4] was greater than 100 µM and the TGI [6] was greater than 100 µM. For the same compound, the TGI [7] was greater than 100 µM, the TGI [8] was greater than 100 µM and the TGI [10] was greater than 100 µM.
For `c1ccc2c(c1)O[As](O[As]1Oc3ccccc3O1)O2`, the GI50 [1] was 2.3 µM, the TGI [1] was 10.3 µM and the GI50 [2] was 2.45 µM. It also gave a TGI [2] of 7.21 µM, a GI50 [3] of 1.84 µM and a TGI [3] of 6.27 µM. The GI50 [4] was 3.18 µM, the TGI [4] was 15.3 µM and the GI50 [6] was 2.59 µM. It also gave a TGI [6] of 15.4 µM, a GI50 [7] of 4.43 µM and a TGI [7] of 23.6 µM. The GI50 [8] was 2.47 µM, the TGI [8] was 12.1 µM and the GI50 [9] was 1.22 µM. It also gave a TGI [9] of 6.55 µM, a GI50 [10] of 2.35 µM and a TGI [10] of 7.41 µM.

Source: PubChem BioAssay (NCI)
